These are literature values, as cited in patent US20180318238A1, “METHODS FOR REDUCING SEQUELAE OF INTRA-DIALYTIC HYPOTENSION” (priority 2015, published 2018).

The conditions of this data set: intravenous, dogs, all doses used; from WO 98/13036.

Consider S-ethylisothiouronium diethylphosphate, for which the “Effect on arterial blood pressure” value was “pronounced hypertensive effect at all doses used”.
